# Measurements: patent US6703237B2, “Methods and formulations for mediating adeno-associated virus (AAV) attachment and infection and methods for purifying AAV” (priority 1998, dated 2004)
# How the values were obtained:
# rAd-LacZ [1] = conditions: Svensson and Persson 1984; cited from earlier work
# rAAV-LacZ = conditions: 20 mM EDTA; HeLa cells; MOI 2
# Procedure: (§1) HeLa cells were infected with recombinant virus (rAd-LacZ [FIG. 11A], rAAV-LacZ [FIG. 11B]) at an MOI of 2 either in the presence or absence of divalent cation chelator EDTA (20 mM) as described in methods. 24 h post Ad infection, and 36 h post AAV infection, cells were fixed and stained for β-galactosidase activity (upper panel). Transduction has been quantitated in the lower panel as the percentage of HeLa cells transduced in the presence or absence of EDTA.
# (§2) All infectivity and binding assays were done in suspension in a buffer determined to result in maximum cell viability, HEPES-buffered saline (HBS) containing 1% BSA (HBSB) (Sambrook et al., (1989) Molecular Cloning, A Laboratory Manual, (N. Ford et al., eds.), Cold Spring Harbor Laboratory Press, New York). Adherent cells were first detached with 10 mM EDTA followed by two washes in phosphate buffered saline (PBS) containing […] CaCl2 and 0.5 mM MgCl2 and one wash in HBS. To assess the effect of EDTA on AAV transduction, HeLa cells were incubated with recombinant virus at an MOI of 2 in HBS±20 mM EDTA for 1 hour at 4° C. After washing in HBS±EDTA to remove unbound virus, cells were resuspended in HBS±5 mM EDTA and placed at 37° C. for 30 minutes.
# rAd-LacZ [2] = conditions: 20 mM EDTA; HeLa cells; MOI 2
# Procedure: as §1, §2
smiles,measurement,setting,value
"O=C(O)CN(CCN(CC(=O)O)CC(=O)O)CC(=O)O [EDTA, ethylenediaminetetraacetate]","inhibition of Ad infection, previous published results",rAd-LacZ [1],20-50%
same,inhibition of AAV infection,rAAV-LacZ,greater than 90%
same,inhibition of recombinant Ad-LacZ transduction,rAd-LacZ [2],40%
